Here are results for 3 compounds from patent US11369602B2, “Use of tadalafil as protein arginine methyltransferase (PRMT5) inhibitor” (Fourth Mil. Med. Univ. of People's Lib. Army, priority 2019, dated 2022).

The test system of one assay is MDA-MB-231 tumor. Briefly: MDA-MB-231 xenograft tumor growth in immunodeficient mice. The class given is in vivo. The settings on record: Tadalafil oral gavage 2 mg/kg once a day; Doxorubicin tail vein 2 mg/kg once a week; 25 days (FIG. 6). Here is the method:
Immunodeficient mice were seeded with MDA-MB-231 cells respectively. When tumor volumes reached 50-100 mm3, mice were given treatment selected from the following: PBS (Control, Ctrl), Tadalafil, Doxorubicin (DOX), Tadalafil in combination with Doxorubicin (DOX+Tadalafil). Tadalafil was administered by oral gavage (2 mg/kg, once a day) while Doxorubicin was administered by mouse tail vein injection (2 mg/kg, once a week). Body weights of mice and tumor volumes were measured every day for 25 days.

For assay [1], the target named is T1, PRMT5 (PRMT5/MEP50 purified protein) (Homo sapiens, UniProt O14744).
T1 construct: purchased abcam ab198151
Put plainly: SPR affinity analysis (Biacore T200). It is filed as binding. Here is the method: Analysis of affinity of Tadalafil for target protein (PRMT5) was carried out using Biacore T200 analysis platform and SPR technology. Tadalafil was obtained from MCE corporation with catalog no: HY-9 0009A (50 mg). PRMT5/MEP50 purified protein was obtained from abcam corporation with catalog no: ab198151 (20 μg). Tadalafil was diluted to a series of concentrations in sequence of: 0.78, 1.56, 3.125, 6.25, 12.5, 25, 50 and 100 (μM).

Another assay relates to tumor. Briefly: Later functional experiment (tumor inhibitory effect).

T1 sequence (O14744 whole entry): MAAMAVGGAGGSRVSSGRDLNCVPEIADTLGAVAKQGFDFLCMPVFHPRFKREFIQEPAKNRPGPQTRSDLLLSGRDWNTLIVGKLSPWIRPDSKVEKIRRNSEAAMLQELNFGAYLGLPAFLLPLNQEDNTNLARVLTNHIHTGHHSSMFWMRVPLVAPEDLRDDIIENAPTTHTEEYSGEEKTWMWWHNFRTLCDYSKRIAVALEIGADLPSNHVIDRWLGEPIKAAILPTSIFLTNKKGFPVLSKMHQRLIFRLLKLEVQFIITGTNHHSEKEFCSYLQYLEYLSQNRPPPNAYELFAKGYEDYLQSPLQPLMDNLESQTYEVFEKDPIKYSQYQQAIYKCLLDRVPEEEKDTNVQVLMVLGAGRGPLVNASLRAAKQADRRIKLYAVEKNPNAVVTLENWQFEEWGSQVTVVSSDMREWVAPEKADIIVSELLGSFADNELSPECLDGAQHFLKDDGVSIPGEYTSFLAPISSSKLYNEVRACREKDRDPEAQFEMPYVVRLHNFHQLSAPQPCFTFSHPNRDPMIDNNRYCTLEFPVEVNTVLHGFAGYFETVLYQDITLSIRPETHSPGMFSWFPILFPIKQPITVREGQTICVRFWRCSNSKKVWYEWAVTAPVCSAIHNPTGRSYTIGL
T1 sequence (Q9BQA1 whole entry partner): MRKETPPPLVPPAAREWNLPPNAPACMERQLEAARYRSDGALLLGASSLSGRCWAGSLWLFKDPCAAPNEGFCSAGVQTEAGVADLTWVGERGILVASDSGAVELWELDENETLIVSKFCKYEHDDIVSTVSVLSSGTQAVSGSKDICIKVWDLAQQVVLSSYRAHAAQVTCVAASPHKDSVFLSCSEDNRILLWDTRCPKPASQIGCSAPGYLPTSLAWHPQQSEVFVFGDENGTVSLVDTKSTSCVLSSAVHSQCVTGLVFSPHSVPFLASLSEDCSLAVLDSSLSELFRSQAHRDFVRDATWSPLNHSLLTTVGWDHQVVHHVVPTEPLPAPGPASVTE

For the compound `COc1cccc2c1C(=O)c1c(O)c3c(c(O)c1C2=O)C[C@@](O)(C(=O)CO)C[C@@H]3O[C@H]1C[C@H](N)[C@H](O)[C@H](C)O1` [Doxorubicin], the “mouse tumor volume / tumor growth” value in the assay with MDA-MB-231 tumor is on record as “inhibited tumor growth”.
Usually Kd stands for a measure of binding affinity in units of concentration. In assay [1] (SPR, Biacore T200, Tadalafil 0.78-100 μM), `CN1CC(=O)N2[C@H](c3ccc4c(c3)OCO4)c3[nH]c4ccccc4c3C[C@@H]2C1=O` [Tadalafil] showed a Kd of 22.7 ± 9.6 µM.
As for `O=C(O)c1cc(/N=N/c2ccc(S(=O)(=O)Nc3ccccn3)cc2)ccc1O` [Sulfasalazine], the “binding ability to PRMT5” value in assay [1] (SPR experiment) is “lower binding ability to PRMT5”. Moreover, the tumor inhibitory effect result in the assay on tumor is “relatively weak tumor inhibitory effect”.
